From PMC6816246, “A Novel Substrate Radiotracer for Molecular Imaging of SIRT2 Expression and Activity with Positron Emission Tomography” (Molecular imaging and biology, 2018) come the findings set out here.

The assay has as its target T1, SIRT2 (Homo sapiens, UniProt Q8IXJ6).
T1 sequence (Q8IXJ6 2-389): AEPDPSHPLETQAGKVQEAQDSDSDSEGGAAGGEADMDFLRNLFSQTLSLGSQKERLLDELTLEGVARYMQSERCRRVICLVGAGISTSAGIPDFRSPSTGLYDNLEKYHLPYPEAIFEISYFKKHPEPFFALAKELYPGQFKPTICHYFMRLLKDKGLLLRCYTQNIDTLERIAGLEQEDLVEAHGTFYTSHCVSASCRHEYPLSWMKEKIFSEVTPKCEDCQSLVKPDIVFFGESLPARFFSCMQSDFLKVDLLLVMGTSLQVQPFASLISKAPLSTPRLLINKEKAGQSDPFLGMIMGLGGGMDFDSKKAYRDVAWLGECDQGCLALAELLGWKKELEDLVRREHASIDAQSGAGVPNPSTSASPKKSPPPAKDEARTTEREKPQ
The experiment in a line: fluorogenic enzyme kinetics with recombinant SIRT2 (Km). It counts as biochemical.
For Boc-Lys(3-F-propanoyl)-AMC [compound 1], the Km is 55.5 µM.
On to Boc-Lys(6-F-hexanoyl)-AMC [compound 2], for which the Km was 44.9 µM.
The value for Boc-Lys(10-F-decanoyl)-AMC [compound 3] was 18 µM; that for “Boc-Lys(12-F-dodecanoyl)-AMC [compound 4]” was 8.07 µM; that for Boc-Lys(myristoyl)-AMC [compound 5] was 2.36 µM.
